Consider two compounds from paper PMC9578396, “Intrinsic Antibacterial Activity of Xeruborbactam In Vitro: Assessing Spectrum and Mode of Action” (Antimicrobial Agents and Chemotherapy, 2022).

The structures appear in SMILES notation. “And” between values parts separate entries of the source, which are not always exact repeats. Equal values may be shown once. Read-outs that look alike come from different tables or passages of the source.

Usually IC50 stands for the concentration needed to halve the response being measured. Broadly, the MIC50 is the lowest concentration that inhibits either 50% of growth or 50% of the strains tested, depending on the study. The term MIC90 denotes an inhibitory concentration at the 90% level, which refers to growth in some studies and to a panel of isolates in others.

One experiment has as its target T1, PBP2 (Acinetobacter baumannii, UniProt D0C8Z9).
T1 construct: endogenous in cells
T1 sequence (D0C8Z9 1-672): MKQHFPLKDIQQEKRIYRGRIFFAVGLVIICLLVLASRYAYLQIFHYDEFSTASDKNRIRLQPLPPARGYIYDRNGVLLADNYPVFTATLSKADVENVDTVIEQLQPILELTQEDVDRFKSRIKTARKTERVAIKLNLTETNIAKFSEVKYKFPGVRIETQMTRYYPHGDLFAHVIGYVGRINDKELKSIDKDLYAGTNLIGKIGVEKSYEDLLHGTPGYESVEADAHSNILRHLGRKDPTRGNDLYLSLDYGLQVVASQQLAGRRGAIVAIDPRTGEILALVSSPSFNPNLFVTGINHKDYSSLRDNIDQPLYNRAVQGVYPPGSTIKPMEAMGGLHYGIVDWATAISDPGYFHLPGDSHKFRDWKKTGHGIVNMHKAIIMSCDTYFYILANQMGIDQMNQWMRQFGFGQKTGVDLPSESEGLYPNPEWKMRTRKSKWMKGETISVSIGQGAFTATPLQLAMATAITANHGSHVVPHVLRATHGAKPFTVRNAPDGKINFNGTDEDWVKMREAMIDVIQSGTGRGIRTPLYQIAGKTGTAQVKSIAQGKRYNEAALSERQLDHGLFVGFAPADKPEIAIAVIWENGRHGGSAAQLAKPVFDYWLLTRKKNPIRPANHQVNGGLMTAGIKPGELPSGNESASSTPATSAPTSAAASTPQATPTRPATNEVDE
The experiment in a line: Gel-based Bocillin FL competition PBP binding assay. Particulars: A. baumannii ACM1320 membranes; Bocillin FL step 0°C for xeruborbactam, 30°C for beta-lactams; read-out: Relative binding IC50, PBP2. Here is the method:
(§1) Ten milliliters of overnight bacterial culture was inoculated in 1 L of LB medium and grown to an OD600 of 0.7 to 0.9. The cell pellet was washed once with 50 mL of solution containing 100 mM Na-phosphate at pH 7.0 and 100 mM NaCl and resuspended in 10 mL of the same buffer with one tablet of EDTA-free mini-protease inhibitor and 10 mg of lysozyme. Cell suspensions were incubated for 45 min at 37°C, and then 200 μL of DNase I was added along with MgSO4 (to a final concentration of 10 mM), followed by three cycles of freeze-thawing (10 min and 20 min, respectively). Four cycles of sonication at maximum power were performed next, each cycle lasting for 30 s with 1 min on ice between cycles. The cell suspension was centrifuged at 12,000 × g for 10 min at 4°C. The supernatant was collected and centrifuged at 100,000 × g for 45 min at 4°C. The pellet was washed three times with 10 mL of 100 mM Na-phosphate, pH 7.0, by resuspension and subsequent centrifugation at 100,000 × g for 10 min at 4°C. The pellet was finally resuspended in 1.5 mL of 100 mM Na-phosphate, pH 7.0, and passed several times through a Dounce homogenizer (tight pestle). Membrane preparations were aliquoted and kept at −80°C.
(§2) Five microliters of total bacterial membrane preparation was mixed with 5 μL of a test compound at a desired concentration in 100 mM Na-phosphate buffer, pH 7.0. Incubation of bacterial membrane preparations with control beta-lactams was performed for 10 min at 30°C; xeruborbactam was incubated with membrane preparations for 1 h at 30°C. Five microliters of 150 μM Bocillin FL fluorescent probe (Thermo Fisher Scientific) was added, and the reaction mixture was incubated for an additional 10 min at 30°C in the case of beta-lactams or for 20 min on ice (0°C) in the case of xeruborbactam. […] At the end of the incubation step, 15 μL of 2× SDS sample loading buffer was added, and the reaction mixture was incubated for 5 min at 95°C. Twenty-five microliters of the reaction mixture was then loaded on an 8% SDS Tris-glycine gel (Thermo Fisher Scientific). At the end of the run, the gel was briefly rinsed with water and fixed in 10% acetic acid, 40% methanol for 20 min. After an additional wash in water for 30 min, the gel was scanned on a Typhoon Trio+ Imager using a blue laser filter (excitation, 488 nm, and emission, 520 nm). Densitometry of the gel images was performed using ImageQuant software (Molecular Dynamics). IC50 values were calculated with Prism software (GraphPad).

The target in the next experiment is PBP1b (Pseudomonas aeruginosa, UniProt G3XD31). The description is as above. How it is done:
as §1, §2

Another experiment has as its system Escherichia coli. Nature of the experiment: Broth microdilution MIC (CLSI), Escherichia coli. In kind it is cell-based. A digest of the protocol: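 Test organisms were KPC-producing clinical isolates (some enriched for porin mutations), matched isolates that lost KPC plasmids, and engineered porin/efflux mutant strains. Susceptibility was measured by broth microdilution following CLSI methods, using panels prepared in-house.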
(Dilution methods test growth across graded concentrations, often in twofold steps.)

The mark [1] stands for this setting: Escherichia coli, strain ECM6001, ΔacrB.
[2] abbreviates: Escherichia coli, strain ECM6502, marR (AcrAB overexpression).

PBP1b, sequence (G3XD31 entry or part of it): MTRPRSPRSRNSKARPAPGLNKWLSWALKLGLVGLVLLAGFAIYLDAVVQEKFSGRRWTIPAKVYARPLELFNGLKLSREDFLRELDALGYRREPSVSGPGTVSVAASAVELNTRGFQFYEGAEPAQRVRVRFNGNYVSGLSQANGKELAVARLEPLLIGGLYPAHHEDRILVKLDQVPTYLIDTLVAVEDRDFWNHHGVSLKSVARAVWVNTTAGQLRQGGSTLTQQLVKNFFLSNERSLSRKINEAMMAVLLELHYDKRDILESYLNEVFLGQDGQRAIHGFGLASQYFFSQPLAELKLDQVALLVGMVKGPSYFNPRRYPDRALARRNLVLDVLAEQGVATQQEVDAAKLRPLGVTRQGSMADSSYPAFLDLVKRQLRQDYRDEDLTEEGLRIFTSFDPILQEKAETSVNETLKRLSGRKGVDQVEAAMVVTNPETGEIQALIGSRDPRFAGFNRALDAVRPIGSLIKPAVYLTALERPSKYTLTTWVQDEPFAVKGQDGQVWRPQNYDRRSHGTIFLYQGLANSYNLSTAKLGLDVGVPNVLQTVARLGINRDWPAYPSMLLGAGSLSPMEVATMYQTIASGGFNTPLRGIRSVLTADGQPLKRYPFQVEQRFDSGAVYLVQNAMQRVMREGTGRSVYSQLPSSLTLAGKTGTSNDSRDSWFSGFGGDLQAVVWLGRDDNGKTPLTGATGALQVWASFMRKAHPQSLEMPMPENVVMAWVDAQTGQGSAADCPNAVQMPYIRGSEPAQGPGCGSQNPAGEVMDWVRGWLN

Consider `C[C@@H](O)[C@H]1C(=O)N2C(C(=O)O)=C(S[C@@H]3CN[C@H](C(=O)N(C)C)C3)[C@H](C)[C@H]12` [Meropenem], for which the IC50 on PBP2 worked out at 11 nM; on PBP1b (read-out: Relative binding IC50, PBP1b; P. aeruginosa PAM3034 membranes; Bocillin FL step 0°C for xeruborbactam, 30°C for beta-lactams), 230 nM. In addition, the MIC with Escherichia coli (Escherichia coli) was 0.03 µg/mL; in the experiment with Escherichia coli (Escherichia coli, MG1655), 0.03 µg/mL and 0.08 µM; in the experiment on Escherichia coli (setting [1]), 0.03 µg/mL; in the experiment on Escherichia coli (setting [2]), 0.06 µg/mL.

`O=C(O)c1c(F)ccc2c1OB(O)[C@@H]1C[C@H]21` [Xeruborbactam]: the IC50 stood at 23000 ± 2000 nM at PBP2; 7100 ± 800 nM at PBP1b (P. aeruginosa PAM3034 membranes; Bocillin FL step 0°C for xeruborbactam, 30°C for beta-lactams; listed as xeruborbactam; read-out: Relative binding IC50, PBP1b); 1900 ± 200 nM at PBP1b (P. aeruginosa PAM3034 membranes; Bocillin FL step 0°C for xeruborbactam, 30°C for beta-lactams; read-out: Relative binding IC50, PBP1b). The MIC in the experiment on Escherichia coli (EC1078, PBP2 same as MG1655, PBP3 I332V) is 32; with Escherichia coli (EC1081, PBP2 same as MG1655, PBP3 Q227H), 8; with Escherichia coli (EC1085, PBP2 T331P, PBP3 A233T I332V), 8; with Escherichia coli (EC1088, PBP2 A308G, PBP3 same as MG1655), 8; with Escherichia coli (EC1097, PBP2 M574I, PBP3 Q227H), 8; in the experiment on Escherichia coli (EC1098, PBP2 V217M, PBP3 YRIN ins, I532L), 8. Moreover, the MIC in the experiment on Escherichia coli (EC1103, PBP2 same as MG1655, PBP3 YRIN ins, Q227H, E349K, I532L) was 8; in the experiment on Escherichia coli (EC1105, PBP2 A543T, PBP3 YRIN ins, Q227H, E349K, I532L), 8; in the experiment with Escherichia coli (EC1119, PBP2 same as MG1655, PBP3 YRIN ins, Q227H, E349K, I532L), 32; in the experiment with Escherichia coli (EC1121, PBP2 V217M, PBP3 YRIN ins, E349K, I532L) it was 8; with Escherichia coli (Escherichia coli, Escherichia coli isolates, read-out: highest MIC observed), 32 µg/mL; in the experiment on Escherichia coli (Escherichia coli, MG1655, Escherichia coli ECM5497 (MG1655), read-out: MIC), 72 µM and 16 µg/mL. Further, the MIC in the experiment on Escherichia coli (Escherichia coli, clinical isolate EC1078, OmpK35 NF, OmpK36 NF, read-out: MIC) amounted to 32 µg/mL; in the experiment on Escherichia coli (Escherichia coli, clinical isolate EC1081, OmpK35 FN, OmpK36 FN, read-out: MIC), 8 µg/mL; in the experiment on Escherichia coli (Escherichia coli, clinical isolate EC1085, OmpK35 FN, OmpK36 FN, read-out: MIC), 8 µg/mL; in the experiment with Escherichia coli (Escherichia coli, clinical isolate EC1088, OmpK35 FN, OmpK36 FN, read-out: MIC) it was 8 µg/mL; in the experiment with Escherichia coli (Escherichia coli, clinical isolate EC1097, OmpK35 FN, OmpK36 FN, read-out: MIC) it was 8 µg/mL; with Escherichia coli (Escherichia coli, clinical isolate EC1098, OmpK35 NF, OmpK36 FN, read-out: MIC), 8 µg/mL. Also, the MIC in the experiment on Escherichia coli (Escherichia coli, clinical isolate EC1119, OmpK35 NF, OmpK36 NF, read-out: MIC) worked out at 32 µg/mL; in the experiment on Escherichia coli (Escherichia coli, clinical isolate EC1121, OmpK35 NF, OmpK36 FN, read-out: MIC) it was 8 µg/mL; in the experiment with Escherichia coli (Escherichia coli, strain ECM5497, wild type, read-out: MIC) it was 8 µg/mL; with Escherichia coli (setting [1]), 8 µg/mL; in the experiment with Escherichia coli (setting [2]), 8 µg/mL; with Escherichia coli (Escherichia coli, strain ECM5497, read-out: MIC), 8 µg/mL. Also, the MIC50 in the experiment with Escherichia coli (Escherichia coli, 334 isolates) was determined as 8 µg/mL. In addition, in the experiment with Escherichia coli (Escherichia coli, 334 isolates), the MIC90 was 16 µg/mL. In the experiment on Escherichia coli (Escherichia coli, 334 isolates), the MIC range was in the range of 2 to 32 µg/mL.
